Test results: patent publication US20240299595A1, “CANCER THERANOSTIC COMPOSITIONS COMPRISING BIGUANIDE COMPLEXES OF GROUP 7 TRANSITION METALS AND USES THEREOF” (BOARD OF REGENTS, THE UNIVERSITY OF TEXAS SYSTEM, priority 2021, published 2024)
“Also recorded” adds a separate entry of the source.

Key:
PDAC cells [1] = test: JC-10 mitochondrial membrane potential assay; assay type: cell-based; settings: JC-10 microplate assay kit
Description: The fluorescent intensities for J-aggregates (Ex/Em=540/590 nm) and monomeric forms (Ex/Em=490/525 nm) of JC-10 were measured with a microplate reader. Fluorescence intensity ratio measured at 525 nm/590 nm represents the change of mitochondrial membrane potential. Data are presented as mean±SD (n=4). *p<0.05; **p<0.01; ***p<0.001.
Both Re-Phen and phenformin altered the mitochondrial functions and metabolic state of PDAC cells. The fluorescent intensities for both monomeric forms (Ex/Em=490/525 nm) and J-aggregates (Ex/Em=540/590 nm) of JC-10 change upon mitochondrial membrane polarization. Thus, an increase in the ratio of fluorescence intensities measured at 525 nm (monomeric form) over 590 nm (aggregates) represents a decrease in mitochondrial membrane potential.

[2] = system: orthotopic Kras* murine PDAC tumor; test: Antitumor efficacy, syngeneic Kras* orthotopic PDAC model; assay type: in vivo, C57BL/6 mice; settings: 10 daily intraperitoneal injections, 50 mg/kg/injection
Description: FIG. 6A outlines an in vivo experiment assessing antitumor activity of Re-Phen against orthotopic Kras* murine PDAC tumor. Male C57BL/6 mice were inoculated in the pancreas with iKrasG12D murine tumor cells. Treatments were initiated on day 7 after tumor cells inoculation. Each mouse received 10 daily intraperitoneal injections of phenformin or Re-Phen at a dose of 50 mg/kg/injection (100 μL/mouse). Control mice received 50/50 (v/v) Cremorphor EL/absolute ethanol, further diluted at 1:4 (v/v) ratio with saline (100 μL/mouse) before injection.
For antitumor efficacy study, the syngeneic Kras* orthotopic PDAC model was used. Kras* PDAC cells established from transgenic mouse model of PDAC with inducible KrasG12D mutation were inoculated into the pancreas of 6-week-old female C57BL/6 mice (Taconic Biosciences, Rensselaer, NY). Treatments were initiated on day 7 after tumor cells inoculation when tumors were ˜5 mm in diameter. Each mouse received 10 daily intraperitoneal injections of phenformin or Re-Phen at a dose of 50 mg/kg/injection (100 μL/mouse) (FIG. 6A). Each drug was formulated in 50/50 (v/v) Cremorphor EL/absolute ethanol, which that was further diluted at 1:4 (v/v) ratio with saline before injection. Animals were weighted daily to record possible adverse effects. Animals were euthanized on day 16 after the last injection. Tumors were harvested and weighted, fixed in formalin, embedded in paraffin, and cut into 4-μm sections. Slides were immunohistochemically stained with the proliferation marker Ki67, counterstained with hematoxylin and visualized under a brightfield microscope at 100× or 200× magnification.

PDAC cells [3] = test: DCFDA cellular ROS detection assay; assay type: cell-based; settings: for level of reactive oxygen species (ROS): DCFDA assay, FIG. 9B
Description: Decreased fluorescence intensity measured at Ex/Em 485/535 nm indicated decreased level of ROS. Data are expressed as mean±SD (n=4). ***p<0.001 compared to vehicle (DMSO) control.
The production of intracellular reactive oxygen species (ROS) after treatments with Re-Phen and phenformin in PDAC cells was also measured (FIG. 16). DCFDA Cellular ROS Detection AssayKit (Abcam, Cambridge, MA) was used to measure Intracellular reactive oxygen species (ROS). Briefly, after seeded into 96-well plates at a cell density of 2.5×10^4 cells per well overnight, cell monolayers were washed and incubated for 45 min at 37° C. in the dark in the presence of 25 μM DCFDA diluted in serum-free adhesion medium without phenol red according to the manufacturer's instructions. Cells were then treated with compounds as indicated for 1 hour. End-point fluorescence was measured in a fluorescence microplate reader (Syneregy H1, Bio-Tek, Winooski, VT) at 485 nm excitation and 535 nm emission wavelengths.

MiaPaca-2 cells = test: Untargeted IC-MS metabolomics; assay type: cell-based
Description: Samples were measured by untargeted IC-MS after 12 hours of treatment (n=3).
Metabolites were extracted from lysed cells and samples were measured by untargeted IC-MS (n=3). Data are expressed as mean±SD (n=3). *p<0.05 compared to phenformin.
Following, untargeted IC-MS was used to analyze changes in cellular metabolites.

[4] = system: MiaPaca-2 and Kras* cells; test: NADH-to-total NAD (NADt) ratio, colorimetric kit; assay type: cell-based; settings: 100 μM, 3 hours or 12 hours
Description: Data are presented as mean±SD (n=3). *p<0.05; ***p<0.001. Vehicle (DMSO) treated cells were as controls.
Following, PDAC cells were used to measure NADH-to-total NAD (NADt) ratios. NADH-to-total NAD (NADt) ratios were measured using a colorimetric kit (Biovision, Milpitas, CA). Briefly, cells were treated for different time periods as indicated and total NAD (NADt, NAD+NADH) was extracted following manufacturer provided protocol. For each of the extracted samples, half of the sample was heated at 60° C. for 30 minutes to decompose NAD+ while keeping NADH intact. Total NAD+ and NADH level was measured without the heating steps and in the presence of NAD cycling enzyme. The ratio of NADH to NADt were calculated on absorbance measured at 450 nm with a microplate reader (SpectraMax, Molecular Device, San Diego, CA). Cells treated with the same amount of DMSO used to prepare 100 μM phenformin or Re-Phen were used as controls.

PDAC cells [5] = test: Seahorse mito-stress test (oxygen consumption rate); assay type: cell-based; settings: 4-hour treatments, Seahorse XF24e
MiaPaca-2 PDAC cells = test: MTT cytotoxicity, pancreatic cancer cell line MiaPaca-2; assay type: cell-based; settings: for IC50: MTT, 72 h
Description: To determine cytotoxicity of Re-Phen and Phenformin, different cell lines were exposed to different concentrations of the compounds and their viabilities were followed over time. […] Cell viability was measured using the MTT assay. The absorption at 590 nm was measured with a microplate reader (SpectraMax, Molecular Device, San Diego, CA) to quantify cell numbers. The proportion of cells was normalized to that of untreated cells and expressed as mean±standard error of the mean (SEM) (n=6). The half-maximal inhibitory concentration (IC50) values were calculated by a sigmoidal dose-response (variable slope) curve-fitting using GraphPad Prism software.

SMILES | mitochondrial membrane potential (PDAC cells [1]) | Ki67+ proliferating cells in tumors (IHC) compared to vehicle [2] | change in body weight [2] | tumor size compared to vehicle control [2] | level of reactive oxygen species (ROS) (PDAC cells [3]) | ROS levels in MiaPaca-2 cells (PDAC cells [3]; MiaPaca-2 cells, DCFDA, treated 1 hour, FIG. 16) | purine nucleotide pool compared to phenformin (MiaPaca-2 cells) | pyrimidine nucleotide pool (MiaPaca-2 cells) | level of 3-phosphoglycerate (3-PG) (MiaPaca-2 cells; 100 μM, 12 h) | level of phosphoenolpyruvate (PEP) (MiaPaca-2 cells; 100 μM, 12 h) | level of glutathione (GSH) (MiaPaca-2 cells; 200 μM, 12 hours) | TCA cycle: level of succinate and aspartate versus vehicle (MiaPaca-2 cells; 12 h) | ratio of NADH to total NADt [4] | mitochondria respiration (OCR) (PDAC cells [5]) | IC50 (MiaPaca-2 PDAC cells) | fold higher cytotoxicity against MiaPaca-2 PDAC cells (MiaPaca-2 PDAC cells; Re-Phen versus phenformin, Table 1) | IC50 (MiaPaca-2 PDAC cells; Homo sapiens, MIA PaCa-2)
N=C(N)NC(=N)NCCc1ccccc1.[C-]#[O+].[C-]#[O+].[C-]#[O+].[Re+] [Re-Phen] | reduced mitochondrial membrane potential | markedly reduced Ki67+ proliferating cells | No significant change in body weight | significantly reduced tumor size | reduced the level of reactive oxygen species (ROS) | reduced ROS levels | increased purine nucleotide pool | decreased pyrimidine nucleotide pool | increased the level of 3-phosphoglycerate (3-PG) more than phenformin did | suppressed the level of phosphoenolpyruvate (PEP) | increased the level of glutathione (GSH) | reduced level of succinate and aspartate | increased the ratio of NADH to total NADt; also recorded: significantly increased NADH/NADt ratio | suppressed mitochondria respiration | 0.039 mM | about 35 fold | 
[H]/N=C(/N)N/C(=N/[H])NCCc1ccccc1 [Phenformin, N-phenylethyl biguanide, reference compound] | reduced mitochondrial membrane potential | markedly reduced Ki67+ proliferating cells | No significant change in body weight |  | increased the level of ROS |  |  | decreased pyrimidine nucleotide pool |  |  |  | reduced level of succinate and aspartate | increased the ratio of NADH to total NADt; also recorded: significantly increased NADH/NADt ratio | suppressed mitochondria respiration |  |  | 13.6 mM
